Source: patent US5608095A, “Alkyl-4-silyl-phenols and esters thereof as antiatherosclerotic agents” (Hoechst Marion Roussel, Inc., priority 1996, dated 1997)
Read-outs that look alike come from different tables or passages of the source.

Legend:
Assay type in all cases: in vivo, male Sprague-Dawley rats
[1] = Animal parameters (food, body weight, liver weight, mortality) in rats; conditions: diet 0.3%, 4 days; for mortality at 96 h: in vivo, po, read-out: mortality (deaths per group); for mortality at 96 h / body wt., percent of control / lw/bw (liver weight/body weight), percent of control: rat
Source text: (§1) A typical experiment consisted of 4-6 groups of rats (N=5 per group) with 1 group being a control which received no MDL compound and the other groups being treated with 0.3% MDL compound. Some of the compounds were either repeated at 0.3% or evaluated again at the lower dose of 0.1%. Male Sprague-Dawley rats, 50-100 g, (Harlan Laboratories, Indianapolis, Ind.) were housed in groups of 5, fed ad libitum water and Purina Rodent chow (#5002) with or without MDL compound as a dietary admixture for 4 days. Dietary admixtures (0.3%) were made by mixing 1.2 grams of an MDL compound with 400 grams of Purina rodent chow (#5002). The MDL compound was mixed with approximately 50 grams of food using a mortar and pestle. This was added to the remainder of the food and mixed for 3 hours on a rotary mixer. In the morning of day 5, non-fasted rats were anesthetized with carbon dioxide, and blood was collected by cardiac puncture. Rats were sacrificed by cervical dislocation. Body weights and liver weights were recorded in grams. Food consumption was recorded as grams.cndot.day^-1.cndot.rat^-1. Deaths were recorded as mortality. Aliquots of fresh serum were used for clinical chemistries, thiobarbituric acid reactive substances (TBARS) and conjugated diene measurements. Aliquots of serum (~0.5mL) and whole livers were frozen at -20° C. for compound and metabolite concentration determination at a later time.

[2] = Clinical chemistries in serum of rats; conditions: for response vs control in vivo at 0.3 %: po, 96 h
Source text: as §1
Blood was allowed to clot at room temperature for 30 minutes. Serum was obtained after centrifugation for 10 min at 4° C. at 3000 rpm in a Beckman J-6M/E centrifuge with a JS-4.2 rotor. Fresh serum was analyzed by a COBAS MIRA S autoanalyzer (Roche Diagnostics) using Roche diagnostic reagents for the following clinical chemistry measurements: alkaline phosphatase (ALP, kit #44553), alanine transaminase (ALT, kit #42375), aspartate aminotransferase (AST, kit #42381), total cholesterol (CHOL, kit #44334), triglyceride (TG, kit #44120), and glucose (GLU, kit #44558). ALP, ALT, and AST were calculated as units/L. Cholesterol, triglycerides, and glucose were calculated as mg/dL.

[3] = HPLC quantitation of compound and metabolite concentration in rat serum and liver; conditions: po, diet 0.3%, 4 days
Source text: as §1
Serum and liver concentrations of parent compound and the metabolites, bisphenol and diphenoquinone, were determined by reverse phase HPLC using a Waters 990 Powerline system. Livers (1 gram samples) were homogenized with 5.0 mL PBS, pH 7.4, using a Polytron tissue homogenizer at setting 5 for 20-30 seconds. Serum or liver homogenates were extracted as follows: 100μL of either serum or homogenate were added to 2.0 mL diethyl ether:ethanol (3:1) while vortexing the tube. The sample tubes were capped and centrifuged for 10 min at 5° C. at 3500 rpm in a Beckman GPKR centrifuge with a GH 3.7 rotor. The supernatants were transferred to clean tubes and dried under N2. Samples were reconstituted with 200 μL of acetonitrile:hexane:0.1M ammonium acetate (90:6.5:3.5, by vol.). Then, 100 μL were injected onto a Waters Deltapak C18-300 Å column, and eluted with an 83% acetonitrile:17% water mobile phase at a flow rate of 1.5 mL/min. Absorbances at the wavelengths of 240, 254, and 420 nm were recorded. Compound concentrations were calculated from known quantities of authentic parent compounds after correction for recovery; the range of recovery from spiked samples was 40 to 100%. The lowest detectable limit for this class of compounds was ~0.5 μg/mL. […]. Concentrations were calculated as μg/mL of serum and μg/g of liver.

[4] = tested on: oxidation of serum lipids; assay: TBARS assay, rat serum; conditions: po, 96 h, read-out: TBARS, percent of control
Source text: as §1
In this assay the oxidation of serum lipids is initiated with CuSO4, resulting in the formation of aldehydes, such as malondialdehyde (MDA). Upon incubation with thiobarbituric acid, the absorbance of the aldehydes can be detected at 530-540 nm. As stated in the previous example, TBARS values which are lower than control serum values indicate the relative ability of a test compound to inhibit the oxidation of lipids in a sample. TBARS were measured as follows: 100 μL of serum were mixed with 400 μL of a 5 mmol CuSO4 solution and incubated at 37° C. for 3 hr. The reactions were stopped by addition of 1.0 mL of 20% trichloroacetic acid. Then 1.0 mL of 0.67% thiobarbituric acid in 0.05N sodium hydroxide was added, mixed, and the samples incubated for 30 min at 90° C. Samples were centrifuged briefly to pellet undissolved material, and the supernatants were transferred to a 96-well microtiter plate. Absorbances were measured at 540 nm using a Biotek model EL311 microplate reader. The nmoles of MDA produced were calculated from a standard curve of 0 to 10 nmoles of MDA prepared from malonaldehyde bis(dimethylacetal). Serum samples from treated rats were compared to serum samples from control rats that received no MDL compound.

[5] = Rattus norvegicus, read-out: CHOL (total cholesterol), percent of control
[6] = rat liver, read-out: Liver Parent = parent compound concentration
[7] = rat serum, read-out: Serum Parent = parent compound concentration

Structure (SMILES)	food (grams eaten per day per rat), percent of control [1] [%]	mortality at 96 h [1] [%]	body wt., percent of control [1] [%]	lw/bw (liver weight/body weight), percent of control [1] [%]	response vs control in vivo at 0.3 % [2, 5] [%]	response vs control in vivo at 0.3 % ([2]; rat serum, diet 0.3%, 4 days, read-out: TRIG (triglycerides), percent of control) [%]	ALP (alkaline phosphatase), percent of control ([2]; rat serum, diet 0.3%, 4 days) [%]	ALT (alanine aminotransferase), percent of control ([2]; rat serum, diet 0.3%, 4 days) [%]	AST (aspartate aminotransferase), percent of control ([2]; rat serum, diet 0.3%, 4 days) [%]	GLUC (glucose), percent of control ([2]; rat serum, diet 0.3%, 4 days) [%]	concentration at 96 h [3, 6] [ng/g]	concentration at 96 h [3, 7] [ng/mL]	response vs control in vivo at 0.3 % ([4]; rat serum, diet 0.3%, 4 days) [%]	response vs control in vivo at 0.3 % ([2]; Rattus norvegicus, read-out: TRIG (triglycerides), percent of control) [%]	response vs control in vivo at 0.3 % ([4]; Rattus norvegicus) [%]
CC(C)(C)c1cc(SC[Si](C)(C)c2ccccc2)ccc1O [MDL 104,571, 2-t-Butyl-4-[(dimethylphenylsilyl)methylthio]phenol]	108	0	97	123	108	119	103	109	103	96	500	1200	58		
CC(C)(C)c1cc(OC[Si](C)(C)c2cccc(C(F)(F)F)c2)cc(C(C)(C)C)c1O [MDL 105,726, 2,6-Di-t-butyl-4-[(dimethyl-3-trifluoromethylphenylsilyl)methyloxy]phenol]	112	0	105	120	104		118	113	112	105	128000	17000		75	48
